Drawing on ChEMBL document CHEMBL5726588, “Chemically modified quinoline and quinolone derivatives useful as CB-1 inverse agonists” (2017), this text covers EC50 for nine compounds.

In one assay the target is Cannabinoid receptor 1 (Homo sapiens, UniProt P21554). In words: (§1) cAMP Assay : Cells plated the day prior to the assay in clear bottom plates were viewed on an inverse microscope to ensure confluency in the range of 60-75%. The following mixtures and buffer solutions were prepared: (a) Buffer 1: HBSS (Mediatech Cat#21-023-CV) with 5 mM HEPES ([…], Gibco BRL Cat#15630-056) and 0.1% BSA (7.5% stock, Invitrogen Cat#15260-037); (b) Buffer 2: 0.5 mM IBMX (200 mM stock in DMSO, Sigma 15879) in Buffer 1; (c) 1 μM cAMP Standard (50 μM stock, Perkin Elmer Cat# AD0262) diluted in Buffer 2 and serially diluted in Buffer 2, 12 doses @ ½ dilutions resulting in a dose range of 1 μM to 0.5 nM; (d) d2 labelled cAMP (CisBio HTRF Detection Kit Cat #62AM4PEB reconstituted with 6 mL d-H2O) diluted 1/20 with lysis buffer (CisBio HTRF Detection Kit Cat #62AM4PEB); (e) anti-cAMP (CisBio HTRF Detection Kit Cat # 62AM4PEB reconstituted with 5 mL d-H2O) diluted 1/20 with lysis buffer (CisBio HTRF Detection Kit Cat #62AM4PEB); and (f) Forskolin (Sigma Cat# F6886, 10 mM in DMSO) diluted first in DMSO to 1 mM and then to 1.5 μM in Buffer 2. For orientation: Time-resolved FRET reads energy transfer from a long-lived donor to a nearby acceptor.
Cannabinoid receptor 1, sequence (P21554 whole entry): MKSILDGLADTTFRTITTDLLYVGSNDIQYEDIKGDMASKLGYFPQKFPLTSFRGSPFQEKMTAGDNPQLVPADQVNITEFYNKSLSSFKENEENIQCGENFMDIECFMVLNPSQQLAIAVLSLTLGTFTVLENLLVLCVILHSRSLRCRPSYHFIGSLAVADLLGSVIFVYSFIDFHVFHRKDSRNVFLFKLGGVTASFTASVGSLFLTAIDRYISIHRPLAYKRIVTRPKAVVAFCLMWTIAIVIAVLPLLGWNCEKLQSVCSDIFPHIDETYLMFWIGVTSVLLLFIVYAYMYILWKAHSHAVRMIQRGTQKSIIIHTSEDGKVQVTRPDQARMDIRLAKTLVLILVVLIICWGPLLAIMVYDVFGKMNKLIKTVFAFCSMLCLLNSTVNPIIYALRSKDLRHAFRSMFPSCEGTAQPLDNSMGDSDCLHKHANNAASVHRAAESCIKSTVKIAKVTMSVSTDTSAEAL

Another assay deals with Cannabinoid receptor 2 (Homo sapiens, UniProt P34972). The description is as §1.
Cannabinoid receptor 2, sequence (P34972 whole entry): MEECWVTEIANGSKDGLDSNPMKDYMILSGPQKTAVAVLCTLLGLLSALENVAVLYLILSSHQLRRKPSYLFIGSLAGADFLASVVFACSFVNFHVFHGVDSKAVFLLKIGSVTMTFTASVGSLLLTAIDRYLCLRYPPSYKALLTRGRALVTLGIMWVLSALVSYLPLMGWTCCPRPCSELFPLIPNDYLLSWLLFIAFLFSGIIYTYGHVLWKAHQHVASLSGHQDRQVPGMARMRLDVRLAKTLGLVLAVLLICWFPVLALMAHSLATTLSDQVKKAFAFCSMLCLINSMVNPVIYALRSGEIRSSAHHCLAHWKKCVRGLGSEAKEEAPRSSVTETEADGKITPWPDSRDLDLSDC

The structures appear in SMILES notation. A value given as a limit tells only on which side of the number the result lay.

What is called EC50 is the concentration that produces a half-maximal response. As to `COCCOCCOCCOCCn1c(=O)c(N2CCN(c3ccccc3)CC2)cc2cc(C(c3ccc(Cl)cc3)c3ccc(Cl)cc3)ccc21`, the EC50 at Cannabinoid receptor 1 came to 350 nM; at Cannabinoid receptor 2, 5510 nM.
The matching figures for `CC(C)(C)OC(=O)NCCOCCOCCOCCOCCOCCOCCOCCOCCOCCOCCOCCOc1cc(NC2CCN(S(=O)(=O)C(F)(F)F)CC2)c2cc(C(c3ccc(Cl)cc3)c3ccc(Cl)cc3)ccc2n1`: 1800 nM and more than 10000 nM.
The matching figures for `NCCOCCOCCOCCOCCOCCOCCOCCOCCOCCOCCOCCOc1cc(NC2CCN(S(=O)(=O)C(F)(F)F)CC2)c2cc(C(c3ccc(Cl)cc3)c3ccc(Cl)cc3)ccc2n1`: 36 nM and 4300 nM.
Turning to `COCCOCCOCCOCCOCCOCCOCCn1c(=O)cc(NC2CCN(S(=O)(=O)C(F)(F)F)CC2)c2cc(C(c3ccc(Cl)cc3)c3ccc(Cl)cc3)ccc21`, the EC50 at Cannabinoid receptor 1 is 4910 nM; at Cannabinoid receptor 2, more than 10000 nM.
As for `CC(C)(C)OC(=O)CCOCCOCCOCCOCCOCCOCCOCCOCCOCCOCCOCCOCCOc1cc(C(c2ccc(Cl)cc2)c2ccc(Cl)cc2)cc2c(NC3CCN(S(=O)(=O)C(F)(F)F)CC3)ccnc12`, the values for the EC50 on Cannabinoid receptor 1 and on Cannabinoid receptor 2 were 460 nM and 2250 nM, respectively.
As for `COCCOCCOCCOCCOCCOCCOCCOc1cc(NC2CCN(S(=O)(=O)C(F)(F)F)CC2)c2cc(C(c3ccc(Cl)cc3)c3ccc(Cl)cc3)ccc2n1`, the results for the EC50 at Cannabinoid receptor 1 and on Cannabinoid receptor 2 were 480 nM and 5570 nM, respectively.
As for `O=S(=O)(N1CCC(Nc2ccnc3c(OCCOCCOCCOCCOCCOCCOCCOCCOCCOCCO)cc(C(c4ccc(Cl)cc4)c4ccc(Cl)cc4)cc23)CC1)C(F)(F)F`, the EC50 on Cannabinoid receptor 1 turned out to be 68 nM; on Cannabinoid receptor 2 it was 1900 nM.
The matching figures for `NNC(=O)CCOCCOCCOCCOCCOCCOCCOCCOCCOCCNC(=O)CCCCCOc1cc(NC2CCN(S(=O)(=O)C(F)(F)F)CC2)c2cc(C(c3ccc(Cl)cc3)c3ccc(Cl)cc3)ccc2n1`: 33 nM and 1260 nM.
The matching figures for `COCCOCCOCCOCCOc1cc(NC2CCN(S(=O)(=O)C(F)(F)F)CC2)c2cc(C(c3ccc(Cl)cc3)c3ccc(Cl)cc3)ccc2n1`: 56 nM and 7400 nM.
